From ChEMBL document CHEMBL1201862, “PubChem BioAssay data set” (2004)
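Briefly, cells in 96-well plates were exposed to five compound concentrations for 48 h, and endpoints were estimated by linear interpolation. Abbreviation: GI50, concentration required for 50% inhibition of growth.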 The source made the active and inactive calls. No stated cut-off is given here; in the data, active = GI50 up to about 1.1 µM and inactive = higher.

Experiments:
Assay in all cases: NCI tumour cell line growth inhibition, 48 h
CCRF-CEM = system: CCRF-CEM
LOX IMVI = system: LOX IMVI
UO-31 = system: UO-31
SN12C = system: SN12C
SK-OV-3 = system: SK-OV-3
HCC 2998 = system: HCC 2998
NCI-H23 = system: NCI-H23
HL-60 = system: HL-60
HCT-116 = system: HCT-116
TK-10 = system: TK-10
NCI-H460 = system: NCI-H460
SK-MEL-5 = system: SK-MEL-5
SK-MEL-28 = system: SK-MEL-28
BT-549 = system: BT-549
M14 = system: M14
A498 = system: A498
DU-145 = system: DU-145
IGROV-1 = system: IGROV-1
Malme-3M = system: Malme-3M
ACHN = system: ACHN
HOP-92 = system: HOP-92
SNB-75 = system: SNB-75
PC-3 = system: PC-3
SK-MEL-2 = system: SK-MEL-2
SF-268 = system: SF-268
Hs-578T = system: Hs-578T
OVCAR-4 = system: OVCAR-4
OVCAR-8 = system: OVCAR-8
T47D = system: T47D
MDA-N = system: MDA-N
U-251 = system: U-251
OVCAR-5 = system: OVCAR-5
MDA-MB-231 = system: MDA-MB-231
MCF7 = system: MCF7
NCI/ADR-RES = system: NCI/ADR-RES
RXF 393 = system: RXF 393
K562 = system: K562
OVCAR-3 = system: OVCAR-3
HCT-15 = system: HCT-15
NCI-H522 = system: NCI-H522
MDA-MB-435 = system: MDA-MB-435
SW-620 = system: SW-620
SR = system: SR
UACC-257 = system: UACC-257
NCI-H226 = system: NCI-H226
CAKI-1 = system: CAKI-1
SNB-19 = system: SNB-19
UACC-62 = system: UACC-62
SF-539 = system: SF-539
MOLT-4 = system: MOLT-4
RPMI-8226 = system: RPMI-8226
COLO 205 = system: COLO 205
A549 = system: A549
KM12 = system: KM12
HOP-62 = system: HOP-62
EKVX = system: EKVX
HT-29 = system: HT-29
786-0 = system: 786-0
SF-295 = system: SF-295

## CC(NC(=O)C(NC(=O)C(NC(=O)C(F)(F)F)C(C)C)C(C)C)C(=O)Oc1c(Cl)c(Cl)c(Cl)c(Cl)c1Cl (stereo not given)
CCRF-CEM
  GI50: > 100 µM (inactive)
LOX IMVI
  GI50: > 100 µM (inactive)
UO-31
  GI50: 86.7 µM (inactive)
SN12C
  GI50: > 100 µM (inactive)
SK-OV-3
  GI50: > 100 µM (inactive)
HCC 2998
  GI50: > 100 µM (inactive)
NCI-H23
  GI50: > 100 µM (inactive)
HL-60
  GI50: > 100 µM (inactive)
HCT-116
  GI50: > 100 µM (inactive)
TK-10
  GI50: > 100 µM (inactive)
NCI-H460
  GI50: > 100 µM (inactive)
SK-MEL-5
  GI50: > 100 µM (inactive)
SK-MEL-28
  GI50: > 100 µM (inactive)
BT-549
  GI50: > 100 µM (inactive)
M14
  GI50: > 100 µM (inactive)
A498
  GI50: > 100 µM (inactive)
DU-145
  GI50: > 100 µM (inactive)
IGROV-1
  GI50: > 100 µM (inactive)
Malme-3M
  GI50: > 100 µM (inactive)
ACHN
  GI50: > 100 µM (inactive)
HOP-92
  GI50: 32.5 µM (inactive)
SNB-75
  GI50: > 100 µM (inactive)
PC-3
  GI50: > 100 µM (inactive)
SK-MEL-2
  GI50: > 100 µM (inactive)
SF-268
  GI50: > 100 µM (inactive)
Hs-578T
  GI50: > 100 µM (inactive)
OVCAR-4
  GI50: > 100 µM (inactive)
OVCAR-8
  GI50: > 100 µM (inactive)
T47D
  GI50: 83.4 µM (inactive)
MDA-N
  GI50: > 100 µM (inactive)
U-251
  GI50: > 100 µM (inactive)
OVCAR-5
  GI50: > 100 µM (inactive)
MDA-MB-231
  GI50: > 100 µM (inactive)
MCF7
  GI50: > 100 µM (inactive)
NCI/ADR-RES
  GI50: > 100 µM (inactive)
RXF 393
  GI50: > 100 µM (inactive)
K562
  GI50: > 100 µM (inactive)
OVCAR-3
  GI50: 92.5 µM (inactive)
HCT-15
  GI50: > 100 µM
NCI-H522
  GI50: 85.5 µM (inactive)
MDA-MB-435
  GI50: > 100 µM (inactive)
SW-620
  GI50: > 100 µM (inactive)
SR
  GI50: > 100 µM (inactive)
UACC-257
  GI50: > 100 µM (inactive)
NCI-H226
  GI50: 94.6 µM (inactive)
CAKI-1
  GI50: > 100 µM (inactive)
SNB-19
  GI50: > 100 µM (inactive)
UACC-62
  GI50: > 100 µM (inactive)
SF-539
  GI50: > 100 µM (inactive)
MOLT-4
  GI50: > 100 µM (inactive)
RPMI-8226
  GI50: > 100 µM (inactive)
COLO 205
  GI50: > 100 µM (inactive)
A549
  GI50: > 100 µM (inactive)
KM12
  GI50: > 100 µM (inactive)
HOP-62
  GI50: > 100 µM (inactive)
EKVX
  GI50: > 100 µM (inactive)
HT-29
  GI50: > 100 µM (inactive)

## CC[C@@]1(O)C(=O)OCc2c1cc1n(c2=O)Cc2c-1nc1ccccc1c2/C=N\NC(=O)C(N)Cc1c[nH]c2ccccc12 (stereo not given in full)
CCRF-CEM
  GI50: < 0.01 µM (active)
LOX IMVI
  GI50: 0.0675 µM (active)
UO-31
  GI50: 0.173 µM (active)
SN12C
  GI50: 0.108 µM (active)
SK-OV-3
  GI50: 0.49 µM (active)
HCC 2998
  GI50: 2.3 µM (inactive)
NCI-H23
  GI50: 0.124 µM (active)
HL-60
  GI50: 0.0638 µM (active)
HCT-116
  GI50: 0.392 µM (active)
TK-10
  GI50: 20 µM (inactive)
NCI-H460
  GI50: 0.104 µM (active)
SK-MEL-5
  GI50: 0.521 µM (active)
SK-MEL-28
  GI50: 1.26 µM (inactive)
786-0
  GI50: 0.108 µM (active)
BT-549
  GI50: 6.25 µM (inactive)
M14
  GI50: 0.332 µM (active)
A498
  GI50: 0.499 µM (active)
DU-145
  GI50: 0.164 µM (active)
IGROV-1
  GI50: 2.86 µM (inactive)
Malme-3M
  GI50: 1.76 µM (inactive)
ACHN
  GI50: < 0.0188 µM (active)
HOP-92
  GI50: 3.8 µM (inactive)
SNB-75
  GI50: 0.0745 µM (active)
PC-3
  GI50: 1.29 µM (inactive)
SK-MEL-2
  GI50: 5.93 µM (inactive)
SF-268
  GI50: 0.0354 µM (active)
Hs-578T
  GI50: 27.9 µM (inactive)
OVCAR-4
  GI50: 3.08 µM (inactive)
OVCAR-8
  GI50: 0.555 µM (active)
T47D
  GI50: 0.0743 µM (active)
MDA-N
  GI50: 2.02 µM (inactive)
U-251
  GI50: 0.0502 µM (active)
OVCAR-5
  GI50: 13.1 µM (inactive)
MDA-MB-231
  GI50: 33 µM (inactive)
MCF7
  GI50: 0.0668 µM (active)
NCI/ADR-RES
  GI50: 0.809 µM (active)
RXF 393
  GI50: 0.145 µM (active)
K562
  GI50: 0.239 µM (active)
OVCAR-3
  GI50: 5.14 µM (inactive)
NCI-H522
  GI50: 0.643 µM (active)
MDA-MB-435
  GI50: 1.05 µM (active)
SW-620
  GI50: 0.61 µM (active)
SR
  GI50: < 0.01 µM (active)
UACC-257
  GI50: 1.96 µM (inactive)
NCI-H226
  GI50: 1.11 µM (active)
CAKI-1
  GI50: 0.0578 µM (active)
SF-295
  GI50: 0.0887 µM (active)
SNB-19
  GI50: < 0.0198 µM (active)
UACC-62
  GI50: 0.0528 µM (active)
SF-539
  GI50: 0.101 µM (active)
MOLT-4
  GI50: < 0.01 µM (active)
RPMI-8226
  GI50: 0.78 µM (active)
COLO 205
  GI50: 18.2 µM (inactive)
A549
  GI50: 0.301 µM (active)
KM12
  GI50: 2.84 µM (inactive)
HOP-62
  GI50: 0.0556 µM (active)
EKVX
  GI50: 5.78 µM (inactive)
HT-29
  GI50: 3.74 µM (inactive)
